According to ChEMBL document CHEMBL4270604, “Hedgehog pathway inhibitors of the acylthiourea and acylguanidine class show antitumor activity on colon cancer in vitro and in vivo” (Eur J Med Chem, 2018):

Assays:
CYP2C9 = CYP2C9 (Homo sapiens, UniProt P11712); assay: Inhibition of recombinant human CYP2C9 expressed in insect cell microsomes at 5 uM using Luciferin-H as substrate preincubated for 30 mins followed by NADPH addition measured after 30 mins by luminometric method; assay type: ADME; settings: probe Luciferin-H
Chain of CYP2C9 (P11712 whole entry): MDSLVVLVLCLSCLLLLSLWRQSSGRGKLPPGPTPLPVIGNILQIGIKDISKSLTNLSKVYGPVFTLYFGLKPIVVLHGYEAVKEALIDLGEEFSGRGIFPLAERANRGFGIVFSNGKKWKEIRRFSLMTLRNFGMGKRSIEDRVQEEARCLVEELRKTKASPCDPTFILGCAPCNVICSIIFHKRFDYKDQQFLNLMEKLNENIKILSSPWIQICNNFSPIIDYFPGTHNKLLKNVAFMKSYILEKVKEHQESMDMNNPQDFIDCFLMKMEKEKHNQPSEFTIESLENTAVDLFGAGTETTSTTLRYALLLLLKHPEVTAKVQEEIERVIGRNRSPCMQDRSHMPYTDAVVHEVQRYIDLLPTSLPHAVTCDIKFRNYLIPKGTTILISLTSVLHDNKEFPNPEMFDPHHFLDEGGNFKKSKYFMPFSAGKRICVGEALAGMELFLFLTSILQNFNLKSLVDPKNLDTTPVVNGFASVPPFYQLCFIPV

in vitro [1] = settings: human, Caco-2
Description: Apparent permeability of the compound from apical to basolateral side in human Caco2 cells assessed as drug recovery after 120 mins by LC-MS/MS analysis

CYP2D6 [2] = target: T1, CYP2D6 (Homo sapiens, UniProt P10635); assay: Inhibition of recombinant human CYP2D6 expressed in insect cell microsomes at 5 uM using Luciferin-ME EGE as substrate preincubated for 30 mins followed by NADPH addition measured after 45 mins by luminometric method; assay type: ADME; settings: probe Luciferin-ME EGE
T1 sequence (P10635 whole entry): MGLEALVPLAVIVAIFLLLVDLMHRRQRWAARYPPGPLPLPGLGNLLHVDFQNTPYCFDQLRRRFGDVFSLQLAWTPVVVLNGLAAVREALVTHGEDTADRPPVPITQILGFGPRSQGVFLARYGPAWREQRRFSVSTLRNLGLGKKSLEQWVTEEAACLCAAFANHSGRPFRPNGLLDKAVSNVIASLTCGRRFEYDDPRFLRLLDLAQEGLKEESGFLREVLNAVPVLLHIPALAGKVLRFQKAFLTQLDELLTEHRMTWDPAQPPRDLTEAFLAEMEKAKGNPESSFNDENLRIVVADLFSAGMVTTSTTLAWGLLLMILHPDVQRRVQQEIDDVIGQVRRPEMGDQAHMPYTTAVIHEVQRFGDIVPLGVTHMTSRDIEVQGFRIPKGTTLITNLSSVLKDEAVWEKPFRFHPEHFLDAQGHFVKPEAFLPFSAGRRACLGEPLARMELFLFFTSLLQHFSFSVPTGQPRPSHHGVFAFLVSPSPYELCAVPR

CYP2C19 [3] = target: T2, CYP2C19 (Homo sapiens, UniProt P33261); assay: Inhibition of recombinant human CYP2C19 expressed in insect cell microsomes at 10 uM using Luciferin-H EGE as substrate preincubated for 20 mins followed by NADPH addition measured after 30 mins by luminometric method; assay type: ADME; settings: probe Luciferin-H EGE
T2 sequence (P33261 whole entry): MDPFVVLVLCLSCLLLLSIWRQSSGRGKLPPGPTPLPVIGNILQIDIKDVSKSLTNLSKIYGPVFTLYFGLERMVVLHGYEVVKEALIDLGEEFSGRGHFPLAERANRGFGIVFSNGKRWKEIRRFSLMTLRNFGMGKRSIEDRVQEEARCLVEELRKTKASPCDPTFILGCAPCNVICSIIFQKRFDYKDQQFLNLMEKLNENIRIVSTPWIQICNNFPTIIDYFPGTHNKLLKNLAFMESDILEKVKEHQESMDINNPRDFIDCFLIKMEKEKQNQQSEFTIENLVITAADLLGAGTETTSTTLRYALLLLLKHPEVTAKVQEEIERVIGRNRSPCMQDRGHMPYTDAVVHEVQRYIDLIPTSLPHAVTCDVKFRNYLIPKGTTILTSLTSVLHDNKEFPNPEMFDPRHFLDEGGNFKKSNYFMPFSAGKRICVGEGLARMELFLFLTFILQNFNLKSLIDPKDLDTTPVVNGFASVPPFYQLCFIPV

LS180 [4] = assay: Antiproliferative activity against human LS180 cells after 72 hrs by sulforhodamine-B assay; assay type: functional, cell-based; settings: for IC50: LS180, 72 h
CYP2C19 [5] = target: T2, CYP2C19; assay: Inhibition of recombinant human CYP2C19 expressed in insect cell microsomes at 1 uM using Luciferin-H EGE as substrate preincubated for 20 mins followed by NADPH addition measured after 30 mins by luminometric method; assay type: ADME; settings: probe Luciferin-H EGE
Cytochrome P450 3A4 = Cytochrome P450 3A4 (Homo sapiens, UniProt P08684); assay: Inhibition of recombinant human CYP3A4 expressed in insect cell microsomes using Luciferin-IPA as substrate preincubated for 10 mins followed by NADPH addition measured after 10 mins by luminometric method; assay type: ADME; settings: recombinant enzyme
Chain of Cytochrome P450 3A4 (P08684 whole entry): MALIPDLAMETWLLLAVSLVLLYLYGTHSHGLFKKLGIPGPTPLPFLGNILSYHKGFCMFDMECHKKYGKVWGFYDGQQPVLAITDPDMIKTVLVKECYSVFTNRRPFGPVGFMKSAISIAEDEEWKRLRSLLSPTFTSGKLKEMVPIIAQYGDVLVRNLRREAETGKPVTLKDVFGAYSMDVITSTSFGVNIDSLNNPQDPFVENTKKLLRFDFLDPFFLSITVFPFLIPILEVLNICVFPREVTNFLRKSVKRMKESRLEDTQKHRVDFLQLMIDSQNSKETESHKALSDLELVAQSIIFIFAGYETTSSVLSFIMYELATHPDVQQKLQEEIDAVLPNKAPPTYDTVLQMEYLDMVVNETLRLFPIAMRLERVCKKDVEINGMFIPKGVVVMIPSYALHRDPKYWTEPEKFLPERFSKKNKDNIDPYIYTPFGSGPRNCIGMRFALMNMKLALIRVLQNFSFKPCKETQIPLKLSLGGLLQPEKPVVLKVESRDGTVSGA

[6] = Apparent clearance in CD1 mouse at 200 mg/kg, po administered as single dose by HPLC-MS/MS analysis; assay type: ADME, organism-based; settings: in vivo
CYP2D6 [7] = target: T1, CYP2D6; assay: Inhibition of recombinant human CYP2D6 expressed in insect cell microsomes at 1 uM using Luciferin-ME EGE as substrate preincubated for 30 mins followed by NADPH addition measured after 45 mins by luminometric method; assay type: ADME; settings: probe Luciferin-ME EGE
[8] = Inhibition of hedgehog signaling pathway-mediated differentiation of mouse C3H10T1/2 cells assessed as decrease in SAG-induced ALP activity after 6 days by chemiluminescence-based assay; settings: C3H 10T1/2, 144 h
in vitro [9] = settings: human, Caco-2; remark: listed apart in the source
Description: Apparent permeability of the compound from basolateral to apical side in human Caco2 cells after 120 mins by LC-MS/MS analysis

[10] = Stability of the compound in mouse deproteinized plasma at 37 degC after 120 mins by HPLC-MS/MS analysis; assay type: ADME, cell-free; settings: 2 h
Homo sapiens = species: Homo sapiens; assay: Substrate activity at recombinant human P-gp in membrane fraction assessed as increase in ATPase activity at 10 uM by luminescent P-gp-Glo assay relative to control
[11] = Drug recovery in mouse deproteinized plasma at 37 degC after 120 mins by HPLC-MS/MS analysis; assay type: ADME, cell-free; settings: read-out: Drug recovery
Mus musculus = assay: Toxicity in athymic nude mouse xenografted with human LS180 cells assessed as body weight loss at 200 mg/kg, po administered 5 days per week for 2 weeks; assay type: organism-based; settings: in vivo
LS180 [12] = assay: Antitumor activity against human LS180 cells xenografted in athymic nude mouse assessed as tumor growth inhibition at 200 mg/kg, po administered 5 days per week for 2 weeks relative to vehicle-treated control; assay type: functional; settings: read-out: TGI
[13] = Half life in cryopreserved mouse liver microsomes at 1 uM after 120 mins by HPLC-MS/MS analysis; assay type: ADME, microsome
[14] = Intrinsic clearance in mouse liver […] per million cells at 1 uM after 120 mins by HPLC-MS/MS analysis; assay type: ADME; settings: 2 h
[15] = Intrinsic clearance in mouse liver microsomes at 1 uM after 120 mins by HPLC-MS/MS analysis; assay type: ADME, microsome; settings: read-out: CLH

`COc1cc(C(=O)NC(=N)Nc2ccc(C)c(NC(=O)c3ccc(-c4ccc(F)cc4)cc3)c2)cc(OC)c1OC.Cl` showed an inhibition at 0.5 h, 5 µM (CYP2C9) of 76%, a recovery at 2 h (in vitro [1]) of 33% and an inhibition at 0.75 h, 5 µM (CYP2D6 [2]) of 25%. For the same compound, the inhibition at 0.5 h, 10 µM (CYP2C19 [3]) was 76%, the Activity (LS180 [4]) was “Dose-dependent effect” and the IC50 (LS180 [4]) was 8100 nM. For the same compound, the inhibition at 0.5 h, 1 µM (CYP2C19 [5]) was 59%, the “inhibition (INH)” value (Cytochrome P450 3A4) was “Dose-dependent effect” and the CL/F [6] was 14.9 mL/min/kg. The inhibition at 0.75 h, 1 µM (CYP2D6 [7]) was 20%, the IC50 [8] was 70 nM and the Papp B→A at 2 h (in vitro [9]) was 0.37 ×10⁻⁶ cm/s. For the same compound, the Stability [10] was “Stable” and the fold change (FC) (Homo sapiens) was 2.3.

For `COc1cc(C(=O)NC(=N)Nc2ccc(C)c(NC(=O)c3ccc(-c4ccccc4)cc3)c2)cc(OC)c1OC.Cl`, the inhibition at 0.5 h, 5 µM (CYP2C9) was 71%, the recovery at 2 h (in vitro [1]) was 16.5% and the inhibition at 0.75 h, 5 µM (CYP2D6 [2]) was 29%. The inhibition at 0.5 h, 10 µM (CYP2C19 [3]) was 81%, the Activity (LS180 [4]) was “Dose-dependent effect” and the IC50 (LS180 [4]) was 9700 nM. For the same compound, the inhibition at 0.5 h, 1 µM (CYP2C19 [5]) was 57%, the “inhibition (INH)” value (Cytochrome P450 3A4) was “Dose-dependent effect” and the CL/F [6] was 14 mL/min/kg. The inhibition at 0.75 h, 1 µM (CYP2D6 [7]) was 19%, the IC50 [8] was 60 nM and the Papp B→A at 2 h (in vitro [9]) was 0.651 ×10⁻⁶ cm/s. The remaining at 2 h [11] was 83% and the fold change (FC) (Homo sapiens) was 4.8.

`COc1cc(C(=O)NC(=N)Nc2ccc(C)c(NC(=O)c3ccc(CCc4ccccc4)cc3)c2)cc(OC)c1OC.Cl` showed an inhibition at 0.5 h, 5 µM (CYP2C9) of 81%, a recovery at 2 h (in vitro [1]) of 41.1% and an inhibition at 0.75 h, 5 µM (CYP2D6 [2]) of 12%. For the same compound, the inhibition at 0.5 h, 10 µM (CYP2C19 [3]) was 83%, the Activity (LS180 [4]) was “Dose-dependent effect” and the IC50 (LS180 [4]) was 2500 nM. The inhibition at 0.5 h, 1 µM (CYP2C19 [5]) was 67%, the Activity (Mus musculus) was “Non-Toxic” and the inhibition in vivo at 200 mg/kg (LS180 [12]) was 48%. The “inhibition (INH)” value (Cytochrome P450 3A4) was “Dose-dependent effect”, the CL/F [6] was 24.3 mL/min/kg and the half-life at 1 µM [13] was 8.07 min. For the same compound, the inhibition at 0.75 h, 1 µM (CYP2D6 [7]) was 15%, the IC50 [8] was 40 nM and the Papp B→A at 2 h (in vitro [9]) was 0.737 ×10⁻⁶ cm/s. The Stability [10] was “Stable”, the fold change (FC) (Homo sapiens) was 1.4 and the CLH [14] was 286 µL/min. For the same compound, the CLint scaled at 1 µM [15] was 756 mL/min/kg.
